From patent publication US20220143103A1, “COMPOSITION FOR PREVENTING OR TREATING NEUROINFLAMMATORY DISORDERS, COMPRISING BEE VENOM EXTRACT AS ACTIVE INGREDIENT” (priority 2019, published 2022)

Key:
Format in all cases: cell-based
[1] = test system: NF-κB (p65, p50, p-IκBα) in BV-2 cells; assay: Western blot of NF-κB subunits and p-IκBα in LPS-treated BV-2 cells; details: BV-2, LPS 1 μg/mL, bvPLA2 100 ng/mL, NF-κB inhibitor; FIG. 7B
Procedure: (§1) Blots were incubated with corresponding conjugated secondary antibodies such as anti-mouse, anti-rabbit and anti-goat obtained from Santa Cruz Biotechnology Inc. (Santa Cruz, Calif., USA). Immunoreactive proteins were detected with an enhanced chemiluminescence Western blotting detection system.
(§2) Microglia BV-2 was cultured and treated simultaneously with LPS (1 μg/mL) or Aβ1-42 (2.5 μM) and various concentrations of bvPLA2 (0.01, 0.1, 1 μg/mL) dissolved in PBS. Cells were harvested after 24 hours to measure cell viability, Nitric Oxide concentration, and a level of pro-inflammatory cytokines.
To determine whether or not bvPLA2 affects inhibition of NF-κB translocation, the level of the NF-κB subunit in the nucleus of BV-2 cells was measured by Western blot.

[2] = test system: TNF-α, IL-1β, IL-6, IL-4, TGF-β in BV-2 cells; assay: qRT-PCR of cytokines in LPS-treated BV-2 cells; details: BV-2, LPS 1 μg/mL
Procedure: Pro-inflammatory and anti-inflammatory cytokine levels were measured by quantitative reverse transcription polymerase chain reaction (qRT-PCR). Total RNA was extracted from hippocampal tissue using RiboEX (Geneall biotechnology, Seoul, Korea), and cDNA was synthesized using a High-Capacity cDNA Reverse Transcription kit (Thermo Scientific, Waltham, Mass., USA).
qRT-PCR was performed on a 7500 real-time PCR system (Applied Biosystems, Foster City, Calif., USA) for custom designed primers, and β-actin was used as a house-keeping control using a HiPi Real-Time PCR SYBR green master mix (ELPIS biotech, Daejeon, Korea).
A cycling condition consisting of an initial denaturation step of 3 minutes at 94° C., a denaturation step of 30 seconds at 94° C., an annealing step of 30 seconds at 60° C., and an extension step of 1 minute at 72° C., was continued until 40 cycles. Values obtained for target gene expression were normalized to β-actin and quantified for expression in control samples.
Each sample was performed with the primers in Table 2 below.
as §2

[3] = test system: iNOS, COX-2, IBA-1 in BV-2 cells; assay: Western blot of iNOS, COX-2, IBA-1 in LPS-treated BV-2 cells; details: BV-2, LPS 1 μg/mL
Procedure: To detect target proteins, specific antibodies to iNOS, IBA-1, GFAP, APP and BACE1 (1:1000; Abcam, Inc., Cambridge, UK), COX-2 (1:1000; Novus Biologicals, Inc., CO, USA), c-Jun N-terminal kinase (JNK), extracellular signal-regulated kinase (ERK) 1/2, p-p38 and p38 ([…]; Cell signaling Technology, Inc., MA, USA), p-STAT3, STAT3, p-ERK1/2, p-JNK, and β-actin (1:200; Santa Cruz Biotechnology Inc., Santa Cruz, Calif., USA) were used.
as §1, §2

β-secretase = β-secretase activity assay in LPS-treated BV-2 cells; details: BV-2, LPS 1 μg/mL, Stattic 1 μM, bvPLA2 1 μg/mL, 24 h; FIG. 21B
Procedure: β-secretase activity in the mouse brain was determined using a commercially available β-secretase activity assay kit (Abcam, Inc., Cambridge, Mass., USA). A solubilized membrane was extracted from brain tissues using a β-secretase extraction buffer, incubated on ice for 1 hour, and centrifuged at 5000×g for 10 minutes at 4° C. to collect supernatant.
A total of 50 μL of sample (100 μg of total protein) or blank (50 μL of β-secretase extraction buffer) was added to each well (96-well plate), then 50 μL of 2× reaction buffer and 2 μL of β-secretase substrate were incubated for 1 hour in a dark room at 37° C. Fluorescence was read at excitation and emission wavelengths of 335 and 495 nm, respectively, using a fluorescence spectrometer (Gemini EM; Molecular Devices, CA, USA).
as §2

Aβ1-42 in BV-2 cells = assay: Aβ1-42 ELISA in LPS-treated BV-2 cells; details: BV-2, LPS 1 μg/mL, Stattic 1 μM, 24 h
Procedure: Lysates of brain tissue were obtained through a protein extraction buffer containing protease inhibitors. Aβ1-42 and Aβ1-40 levels were measured using the specific mouse β-amyloid peptide 1-42 enzyme-linked immunosorbent assay (ELISA) kit (CSB-E10787m; CUSABIO, Houston, USA) and mouse β-amyloid peptide 1-40 ELISA kit (CSB-E08300m; CUSABIO, Houston, USA), respectively.
To investigate the effect of bvPLA2 on amyloidogenesis in vitro, BV-2 cells were treated with LPS and various concentrations of bvPLA2 (0.01, 0.1, 1 μg/mL) for 24 hours. Aβ1-42 levels in BV-2 cells were determined by ELISA.
The inhibitory effects of a STAT3 inhibitor (Stattic) and the bee venom extracts on amyloid production and neuroinflammation were tested in BV-2 cells. To determine the combination effect of bvPLA2 and Stattic on amyloidogenesis and neuroinflammation in vitro, BV-2 microglia were treated with LPS (1 μg/m L), Stattic (1 μM), or bvPLA2 (1 μg/mL) for 24 h.

Compound | levels of p-IκBα, p65, and p50 [1] | expression levels of TNF-α, IL-1β, and IL-6 (qRT-PCR) ([2]; bvPLA2 100 ng/mL, NF-κB inhibitor, FIG. 7C) | levels of iNOS and COX-2 (Western blot) ([3]; bvPLA2 100 ng/mL, NF-κB inhibitor, FIG. 7A) | β-secretase activity (β-secretase) | Aβ1-42 level (ELISA) (Aβ1-42 in BV-2 cells) [pg/mg] | expression levels of TNF-α, IL-1β, and IL-6 (qRT-PCR) ([2]; Stattic 1 μM, bvPLA2 1 μg/mL, 24 h, FIG. 21E) | intracellular levels of iNOS and COX-2 (Western blot) ([3]; Stattic 1 μM, bvPLA2 1 μg/mL, 24 h, FIG. 21D)
Cc1ccc(S(=O)(=O)/C=C/C#N)cc1 [Bay 11-7802] | alleviated | decreased | decreased |  |  |  | 
O=[N+]([O-])c1ccc2c(c1)S(=O)(=O)C=C2 [Stattic] |  |  |  | decreased | 264.2 ± 4.384 | decreased | decreased
